Here are results for three compounds from ChEMBL document CHEMBL3259800, “Design, synthesis and biological evaluation of novel 4-alkapolyenylpyrrolo[1,2-a]quinoxalines as antileishmanial agents--part III” (Eur J Med Chem, 2014).

The subject of series [1] is Leishmania major. The series can be described thus: Antimicrobial activity against Leishmania major MHOM/IL/81/BNI promastigotes after 96 hrs by resazurin-based assay. The series is classed as functional, organism-based. A general note: The colour change of resazurin is a common sign of viable cells or microbes.
The next series relates to Leishmania mexicana. The series can be described thus: Antimicrobial activity against Leishmania mexicana MHOM/MX/95/NAN1 promastigotes after 96 hrs by resazurin-based assay. The series is classed as functional, organism-based. The settings on record: MHOM/MX/95/NAN1, 96 h.
The next series deals with Leishmania donovani. The series can be described thus: Antimicrobial activity against Leishmania donovani MHOM/IN/00/DEVI promastigotes after 72 hrs by MTT assay. The series is classed as functional, organism-based. A general note: Formazan colour is commonly taken as a measure of viable cells.
Series [2] can be described thus: Cytotoxicity against mouse J774A1 cells after 72 hrs by MTT assay. The series is classed as cell-based, J774.A1.
Series [3] can be described thus: Cytotoxicity against human HepG2 cells after 72 hrs by MTT assay. The series is classed as cell-based.
A short description of series [4]: Selectivity index, ratio of CC50 for human HepG2 cells to IC50 for Leishmania major MHOM/IL/81/BNI promastigotes. The series is classed as functional.
Series [5] in a line: Selectivity index, ratio of CC50 for human HepG2 cells to IC50 for Leishmania mexicana MHOM/MX/95/NAN1 promastigotes. The series is classed as functional.
Series [6] can be described thus: Selectivity index, ratio of CC50 for human HepG2 cells to IC50 for Leishmania donovani MHOM/IN/00/DEVI promastigotes. The series is classed as functional.
Series [7] in a line: Selectivity index, ratio of CC50 for mouse J774A1 cells to IC50 for Leishmania major MHOM/IL/81/BNI promastigotes. The series is classed as functional, J774.A1.
A short description of series [8]: Selectivity index, ratio of CC50 for mouse J774A1 cells to IC50 for Leishmania mexicana MHOM/MX/95/NAN1 promastigotes. The series is classed as functional, J774.A1.
Series [9] is described as follows: Selectivity index, ratio of CC50 for mouse J774A1 cells to IC50 for Leishmania donovani MHOM/IN/00/DEVI promastigotes. The series is classed as functional, J774.A1.
In series [10] the test system is Leishmania major. The series can be described thus: Ratio of pentamidine IC50 to compound IC50 for Leishmania major MHOM/IL/81/BNI promastigotes. The series is classed as functional.
Series [11] has as its system Trypanosoma brucei brucei. The series can be described thus: Antimicrobial activity against Trypanosoma brucei brucei Antat 1.1 after 24 hrs by haemocytometric analysis. The series is classed as functional, organism-based. The settings on record: Antat 1.1, 24 h.
Series [12] in a line: Selectivity index, ratio of CC50 for human HepG2 cells to IC50 for Trypanosoma brucei brucei Antat 1.1. The series is classed as functional.
The subject of series [13] is Plasmodium falciparum. The series can be described thus: Antimicrobial activity against chloroquine-resistant and mefloquine-sensitive Plasmodium falciparum W2 infected in human erythrocytes after 48 hrs by SYBR Green I assay. The series is classed as functional, organism-based. The settings on record: W2, 48 h.
Series [14] concerns Plasmodium falciparum. The series can be described thus: Antimicrobial activity against chloroquine and mefloquine-sensitive Plasmodium falciparum 3D7 infected in human erythrocytes after 48 hrs by SYBR Green I assay. The series is classed as functional, organism-based. The settings on record: 3D7, 48 h.
Series [15] can be described thus: Selectivity index, ratio of CC50 for human HepG2 cells to IC50 for chloroquine-resistant and mefloquine-sensitive Plasmodium falciparum W2. The series is classed as functional.
Series [16] can be described thus: Selectivity index, ratio of CC50 for human HepG2 cells to IC50 for chloroquine and mefloquine-sensitive Plasmodium falciparum 3D7. The series is classed as functional.

As to `C/C=C/C=C/C=C/c1nc2ccccc2n2cccc12`, the IC50 (as a rule, the concentration that inhibits the measured activity by half) with Leishmania major [1] is 1.2 µM; in the series with Leishmania mexicana, 4.4 µM; with Leishmania donovani it was 10.5 µM; in series [11] it was 2.2 µM; in the series with Plasmodium falciparum [13] it was 8.8 µM; with Plasmodium falciparum [14], 10.1 µM. For the same compound, the values for the CC50 at 72 h in [2] and in series [3] were 4.9 µM and 10.6 µM, respectively. In addition, the “Ratio CC50/IC50” value in series [4] is on record as 8.8; in series [5] it was 2.4; in series [6], 1; in series [7] it was 4.1; in series [8] it was 1.1; in series [9], 0.5. Besides, the “Ratio CC50/IC50” value was found to be 4.8 in series [12], 1.2 in series [15] and 1 in series [16]. The “Ratio IC50” value in the series on Leishmania major [10] is given as 3.6.

For `CCC/C=C/C=C/c1nc2cc(OC)ccc2n2cccc12`, the IC50 with Leishmania major [1] was found to be 2.8 µM; with Leishmania mexicana, 3.2 µM; with Leishmania donovani, 8.6 µM; in [11], 1.9 µM; with Plasmodium falciparum [13], 0.8 µM; with Plasmodium falciparum [14], 2.3 µM. Also, the CC50 (usually the concentration at which the toxic effect on the cells reaches its halfway point) at 72 h amounted to 6.5 µM in series [2] and 8.8 µM in series [3]. The “Ratio CC50/IC50” value in series [4] is 3.1; in [5], 2.8; in series [6], 1; in series [7], 2.3; in [8], 2; in [9] it was 0.8. Moreover, the results for the “Ratio CC50/IC50” value in series [12], in series [15] and in [16] were 4.6, 11 and 3.8, respectively.

For the compound `CCCC/C=C/C=C/c1nc2ccc(OC)cc2n2cccc12`, the IC50 with Leishmania major [1] turned out to be 4.4 µM; in the series with Leishmania mexicana, 3.8 µM; in the series with Leishmania donovani, 14.7 µM; in series [11] it was 1.3 µM; in the series with Plasmodium falciparum [13] it was 13.3 µM; in the series with Plasmodium falciparum [14] it was 10.4 µM. Besides, the CC50 at 72 h came to 10 µM in series [2] and 22.9 µM in series [3]. The “Ratio CC50/IC50” value in [4] is given as 5.2; in [5], 6; in series [6], 1.6; in series [7] it was 2.3; in [8] it was 2.6; in series [9], 0.7. Besides, the results for the “Ratio CC50/IC50” value in series [12], in series [15] and in series [16] were 17.6, 1.7 and 2.2, respectively.
